Experimental data: USRE33897E, “Synthetic polypeptides and antibodies related to Epstein-Barr virus nuclear antigen” (Scripps Clinic and Research Foundation, priority 1989, dated 1992)
Residues, ends and D or L forms follow the SMILES beside them.

What was measured:
[1] = Circular dichroism spectroscopy of polypeptides in phosphate buffered saline; type: physicochemical; settings: 1 mg/ml
Experimental: The conformational properties of the polypeptides were investigated to elucidate any secondary structure that might be necessary for polypeptide immunoreaction with human anti-EBNA antibodies. The polypeptides were dissolved at a concentration of 1 mg/ml in phosphate-buffered saline (PBS). Spectra were taken using 1 ml samples in a Cary 61 spectropolarimeter (Cary Instruments, Applied Physics Corp., Monrovia, Calif.) interfaced and automated with a Digital Equipment Corporation 11/02 computer (Digital Equipment Corporation, Maynard, Mass.).

anti-EBNA antibodies = assay: ELISA with polypeptide as solid phase antigen, detecting anti-polypeptide antibodies in sera; type: binding, human; settings: for Reaction of VCA- sera with polypeptide: panel of 19 VCA- sera; for Reaction of sera of clinically normal VCA+ individuals with polypeptide: two serum dilutions; for Average titer of Progressive Systemic Schlerosis (PSS) patients to polypeptide compared with normals: high and low serum dilutions; for Number of 91 anti-EBNA positive (ACIF) sera positive against polypeptide: sera at 1:20 dilution
Experimental: A solution containing a substrate for the enzyme label such as hydrogen peroxide for peroxidase and a color-forming dye precursor such as o-phenylenediamine, or p-nitrophenyl phosphate for alkaline phosphatase is thereafter admixed with the solid phase.
Anti-peptide antibody binding and inhibition studies were carried out by an enzyme-linked immunosorbent assay (ELISA) as described below.
Briefly, microtiter wells (Costar, #3590, Cambridge, Mass.) were coated with individual polypeptides as antigens by adding 100 microliters (ul) of BBS [10 millimoler (mM) sodium borate (pH 8.3), 150 mM NaCl] containing polypeptide at a concentration of 10 micrograms per milliliter (ug/ml). Contact between the wells and antigen-containing solution was maintained for a predetermined time, typically 15 minutes, and at 20 degrees C., to form an antigen-coated solid phase. The solid and liquid phases were separated and the wells were washed three times with BBS.
Non-specific binding sites were blocked by admixing 200 microliters of 1% bovine serum albumin (BSA) in each well to form another solid-liquid phase admixture, and maintaining that solid-liquid phase admixture for 30 minutes, at 20 degrees C. The phases were separated and excess, unbound BSA was removed by washinq three times with BBS.
[…] Contact between the diluted sera and the antigen-coated solid phase was maintained for a predetermined time such as 1 hour, and at 20 degrees C., for an immunoreactant to form. The solid and liquid phases were separated, and the solid phase; i.e., antigen-coated, immunoreactant-containing wells, was then washed three times with BBS.
The antibodies in human sera that immunoreacted with an adsored polypeptide were detected using an indicating means comprising alkaline phosphatase-conjugated goat anti-human Ig antibody (Tago, Burlington, CA). The antibodies in rabbit sera that immunoreacted with an adsorbed polypeptide were detected using an indicating means comprising alkaline phosphatase-conjugated goat anti-rabbit Ig antibody (Kirkegard & Perry Laboratories, Inc., Gaithersburg, Md.). In either instance, 100 microliters of the indicating antibody diluted 1:300 in BBS were added per well to form a further solid-liquid phase composition. This solidliquid phase composition was maintained for a predetermined time, one hour, for the formation of a reaction product between the human antibodies bound to the solid phase and the indicating means, and at 20 degrees C.

Row | SMILES | Conformation indicated by circular dichroism spectrum [1] | Reaction of VCA- sera with polypeptide (anti-EBNA antibodies) | Reaction of sera of clinically normal VCA+ individuals with polypeptide (anti-EBNA antibodies) | OD405 × 10^3 obtained with patient antibodies to polypeptide, average ± one standard deviation (anti-EBNA antibodies; VCA- Normals (n = 27), dilution 1:20) | Average titer of Progressive Systemic Schlerosis (PSS) patients to polypeptide compared with normals (anti-EBNA antibodies) | Number of 91 anti-EBNA positive (ACIF) sera positive against polypeptide (anti-EBNA antibodies) | Antibodies binding to polypeptide before and after EBV-induced infectious mononucleosis (anti-EBNA antibodies; sera of two subjects) | OD405 × 10^3 obtained with patient antibodies to polypeptide (anti-EBNA antibodies; serum MV post-mononucleosis, dilution 1:20) | OD405 × 10^3 obtained with patient antibodies to polypeptide (anti-EBNA antibodies; serum MV pre-mononucleosis, dilution 1:20) | OD405 × 10^3 obtained with patient antibodies to polypeptide (anti-EBNA antibodies; serum SB post-mononucleosis, dilution 1:20) | OD405 × 10^3 obtained with patient antibodies to polypeptide (anti-EBNA antibodies; serum SB pre-mononucleosis, dilution 1:20) | OD405 × 10^3 obtained with patient antibodies to polypeptide (anti-EBNA antibodies; serum VCA + Normal 1, dilution 1:20) | OD405 × 10^3 obtained with patient antibodies to polypeptide (anti-EBNA antibodies; serum VCA + Normal 2, dilution 1:20)
1 | C[C@H](NC(=O)CNC(=O)[C@@H]1CCCN1)C(=O)N1CCC[C@H]1C(=O)NCC(=O)NCC(=O)N[C@@H](CO)C(=O)NCC(=O)N[C@@H](CO)C(=O)NCC(=O)N1CCC[C@H]1C(=O)O [Polypeptide F13, H--Pro--Gly--Ala--Pro--Gly--Gly--Ser--Gly--Ser--Gly--Pro--OH] (H-PGAPGGSGSGP-OH) | random conformation | None of the VCA- sera were found to react positively | all of the VCA+ indiviuals were positive | – | – | – | – | – | – | – | – | – | –
2 | C[C@H](NC(=O)CNC(=O)CNC(=O)[C@H](C)NC(=O)CNC(=O)[C@H](C)NC(=O)CNC(=O)[C@H](C)NC(=O)CNC(=O)[C@@H](NC(=O)CNC(=O)CNC(=O)[C@H](Cc1c[nH]cn1)NC(=O)[C@@H](NC(=O)CNC(=O)[C@@H](N)CCCCN)[C@@H](C)O)[C@@H](C)O)C(=O)NCC(=O)N[C@@H](C)C(=O)NCC(=O)O [Polypeptide P27, H--Lys--Gly--Thr--His--Gly--Gly--Thr--Gly--Ala--Gly--Ala--Gly--Ala--Gly--Gly--Ala--Gly--Ala--Gly--OH] (H-KGTHGGTGAGAGAGGAGAG-OH) | very similar spectra | None of the VCA- sera were found to react positively | all of the VCA+ indiviuals were positive | 67 ± 23 OD405 × 10^3 | relatively higher average titer | 91 | absent before infection, but appeared afterward | 107 OD405 × 10^3 | 15 OD405 × 10^3 | 33 OD405 × 10^3 | 11 OD405 × 10^3 | 155 OD405 × 10^3 | 516 OD405 × 10^3
3 | C[C@H](NC(=O)CN)C(=O)NCC(=O)NCC(=O)N[C@@H](C)C(=O)NCC(=O)N[C@@H](C)C(=O)NCC(=O)NCC(=O)NCC(=O)N[C@@H](C)C(=O)NCC(=O)NCC(=O)N[C@@H](C)C(=O)NCC(=O)NCC(=O)O [Polypeptide F15, H--Gly--Ala--Gly--Gly--Ala--Gly--Ala--Gly--Gly--Gly--Ala--Gly--Gly--Ala--Gly--Gly--OH] (H-GAGGAGAGGGAGGAGG-OH) | very similar spectra | None of the VCA- sera were found to react positively | all of the VCA+ indiviuals were positive | – | relatively higher average titer | 91 | – | – | – | – | – | – | –
4 | C[C@H](NC(=O)CNC(=O)CNC(=O)CNC(=O)[C@H](C)NC(=O)CNC(=O)[C@H](C)NC(=O)CNC(=O)CNC(=O)[C@H](C)NC(=O)CNC(=O)CNC(=O)[C@H](C)NC(=O)CNC(=O)CN)C(=O)NCC(=O)O [Polypeptide F14, H--Gly--Gly--Ala--Gly--Gly--Ala--Gly--Gly--Ala--Gly--Ala--Gly--Gly--Gly--Ala--Gly--OH] (H-GGAGGAGGAGAGGGAG-OH) | very similar spectra | None of the VCA- sera were found to react positively | all of the VCA+ indiviuals were positive | – | relatively higher average titer | 91 | – | – | – | – | – | – | –
5 | C[C@H](NC(=O)CNC(=O)CNC(=O)[C@H](C)NC(=O)CNC(=O)[C@H](C)NC(=O)CNC(=O)CNC(=O)[C@H](C)NC(=O)CNC(=O)[C@H](C)NC(=O)CNC(=O)CNC(=O)[C@H](C)NC(=O)CNC(=O)[C@H](C)NC(=O)CNC(=O)CN)C(=O)NCC(=O)N[C@@H](C)C(=O)NCC(=O)O [Polypeptide F16, H--Gly--Gly--Ala--Gly--Ala--Gly--Gly--Ala--Gly--Ala--Gly--Gly--Ala--Gly--Ala--Gly--Gly--Ala--Gly--Ala--Gly--OH] (H-GGAGAGGAGAGGAGAGGAGAG-OH) | – | None of the VCA- sera were found to react positively | all of the VCA+ indiviuals were positive | – | relatively higher average titer | 91 | – | – | – | – | – | – | –
6 | CC[C@H](C)[C@H](N)C(=O)N[C@@H](CCSC)C(=O)N[C@@H](CO)C(=O)N[C@@H](CC(=O)O)C(=O)N[C@@H](CCC(=O)O)C(=O)NCC(=O)N1CCC[C@H]1C(=O)NCC(=O)N[C@H](C(=O)NCC(=O)N[C@@H](CC(N)=O)C(=O)NCC(=O)N[C@@H](CC(C)C)C(=O)NCC(=O)N[C@@H](CCC(=O)O)C(=O)O)[C@@H](C)O [Polypeptide F12, H--Ile--Met--Ser--Asp--Glu--Gly--Pro--Gly--Thr--Gly--Asn--Gly--Leu--Gly--Glu--OH] (H-IMSDEGPGTGNGLGE-OH) | partial assumption of such conformation | None of the VCA- sera were found to react positively | all of the VCA+ indiviuals were positive | – | – | – | – | – | – | – | – | – | –
